According to ChEMBL document CHEMBL1201862, “PubChem BioAssay data set” (2004):
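1) Cells in 96-well plates. 2) Compound, 48 h, 5 concentrations. 3) Linear interpolation between surrounding doses. 4) Unreached endpoint = highest concentration. The concentration for 50% growth inhibition is given as GI50.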 Calls of active or inactive are those of the source. No stated cut-off is given here; in the data, active = GI50 up to about 1.1 µM and inactive = higher.

How the values were obtained:
Test in all cases: growth of human tumour cells (NCI), 48 h
[1] = tested on: OVCAR-3
[2] = tested on: HCT-15
[3] = tested on: SF-539
[4] = tested on: UO-31
[5] = tested on: SF-295
[6] = tested on: HT-29
[7] = tested on: SR
[8] = tested on: K562
[9] = tested on: SK-MEL-28
[10] = tested on: Malme-3M
[11] = tested on: 786-0
[12] = tested on: OVCAR-4
[13] = tested on: A498
[14] = tested on: SF-268
[15] = tested on: HOP-62
[16] = tested on: UACC-257
[17] = tested on: HCC 2998
[18] = tested on: RPMI-8226
[19] = tested on: LOX IMVI

SMILES: O=C(C=P(c1ccccc1)(c1ccccc1)c1ccccc1)c1ccccc1-c1ccccc1C(=O)C=P(c1ccccc1)(c1ccccc1)c1ccccc1
- GI50 [1]: < 0.01 µM (active)
- GI50 [2]: 0.28 µM
- GI50 [3]: 0.0328 µM (active)
- GI50 [4]: 0.228 µM (active)
- GI50 [5]: 0.0269 µM (active)
- GI50 [6]: 0.0236 µM (active)
- GI50 [7]: 0.0143 µM (active)
- GI50 [8]: < 0.01 µM (active)
- GI50 [9]: 0.178 µM (active)
- GI50 [10]: < 0.01 µM (active)
- GI50 [11]: 0.0344 µM (active)
- GI50 [12]: 0.029 µM (active)
- GI50 [13]: 0.0264 µM (active)
- GI50 [14]: 0.0351 µM (active)
- GI50 [15]: 0.0311 µM (active)
- GI50 [16]: < 0.01 µM (active)
- GI50 [17]: 0.0319 µM (active)
- GI50 [18]: < 0.01 µM (active)
- GI50 [19]: 0.018 µM (active)

SMILES: CCN(CC)CC[S+]([O-])c1c2cc(OC)ccc2nc2ccc(OC)cc12 (stereo not given)
- GI50 [1]: 3.39 µM (inactive)
- GI50 [2]: 3.21 µM
- GI50 [3]: 2.32 µM (inactive)
- GI50 [4]: 2.25 µM (inactive)
- GI50 [5]: 21.8 µM (inactive)
- GI50 [6]: 3.44 µM (inactive)
- GI50 [7]: 2.72 µM (inactive)
- GI50 [8]: 5.78 µM (inactive)
- GI50 [9]: 14.7 µM (inactive)
- GI50 [10]: 0.865 µM (active)
- GI50 [11]: 2.02 µM (inactive)
- GI50 [12]: 14.4 µM (inactive)
- GI50 [13]: 16.3 µM (inactive)
- GI50 [14]: 7.93 µM (inactive)
- GI50 [15]: 19.4 µM (inactive)
- GI50 [16]: 5.08 µM (inactive)
- GI50 [17]: 18.3 µM (inactive)
- GI50 [18]: 2.63 µM (inactive)
- GI50 [19]: 3.23 µM (inactive)

SMILES: CCOC(=O)c1c(OCC)[nH]c(=O)c(C(c2ccc(F)cc2)c2c(O)c(C(=O)OCC)c(OCC)[nH]c2=O)c1O
- GI50 [1]: 15.4 µM (inactive)
- GI50 [2]: 18.4 µM
- GI50 [3]: 10 µM (inactive)
- GI50 [4]: 12.8 µM (inactive)
- GI50 [5]: 17.7 µM (inactive)
- GI50 [6]: 16.1 µM (inactive)
- GI50 [7]: 10.5 µM (inactive)
- GI50 [8]: 16.5 µM (inactive)
- GI50 [9]: 11.9 µM (inactive)
- GI50 [10]: 8.32 µM (inactive)
- GI50 [11]: 16.4 µM (inactive)
- GI50 [12]: 14.6 µM (inactive)
- GI50 [13]: 11.4 µM (inactive)
- GI50 [14]: 14.6 µM (inactive)
- GI50 [15]: 13 µM (inactive)
- GI50 [16]: 14.8 µM (inactive)
- GI50 [17]: 18.1 µM (inactive)
- GI50 [18]: 16.1 µM (inactive)
- GI50 [19]: 16.6 µM (inactive)

SMILES: O=S(=O)(/C=C/C=C/[S+]([O-])c1ccccc1)c1ccccc1 (stereo not given)
- GI50 [1]: 1.53 µM (inactive)
- GI50 [2]: 2.05 µM
- GI50 [3]: 8.09 µM (inactive)
- GI50 [4]: 2.27 µM (inactive)
- GI50 [5]: > 10 µM (inactive)
- GI50 [6]: 2.21 µM (inactive)
- GI50 [7]: 0.877 µM (active)
- GI50 [8]: 0.902 µM (active)
- GI50 [9]: 1.98 µM (inactive)
- GI50 [10]: 1.98 µM (inactive)
- GI50 [11]: 0.625 µM (active)
- GI50 [12]: 1.59 µM (inactive)
- GI50 [13]: 6.97 µM (inactive)
- GI50 [14]: 3.13 µM (inactive)
- GI50 [15]: > 10 µM (inactive)
- GI50 [16]: 1.67 µM (inactive)
- GI50 [17]: > 10 µM (inactive)
- GI50 [18]: 0.875 µM (active)
- GI50 [19]: 1.03 µM (active)

SMILES: Cn1c(=O)c2c3ccccc3n(C)c2n(C)c1=O
- GI50 [1]: > 100 µM (inactive)
- GI50 [2]: > 100 µM
- GI50 [3]: > 100 µM (inactive)
- GI50 [4]: > 100 µM (inactive)
- GI50 [5]: > 100 µM (inactive)
- GI50 [6]: > 100 µM (inactive)
- GI50 [7]: > 100 µM (inactive)
- GI50 [8]: > 100 µM (inactive)
- GI50 [10]: > 100 µM (inactive)
- GI50 [11]: > 100 µM (inactive)
- GI50 [12]: > 100 µM (inactive)
- GI50 [13]: > 100 µM (inactive)
- GI50 [14]: > 100 µM (inactive)
- GI50 [15]: > 100 µM (inactive)
- GI50 [16]: > 100 µM (inactive)
- GI50 [17]: > 100 µM (inactive)
- GI50 [18]: > 100 µM (inactive)
- GI50 [19]: > 100 µM (inactive)

SMILES: CCOC(=O)CC(=O)Sc1ccccc1
- GI50 [1]: 17.3 µM (inactive)
- GI50 [3]: 14 µM (inactive)
- GI50 [4]: 14.7 µM (inactive)
- GI50 [5]: 29.6 µM (inactive)
- GI50 [6]: 22.7 µM (inactive)
- GI50 [7]: 14.1 µM (inactive)
- GI50 [8]: 19.4 µM (inactive)
- GI50 [9]: 14.6 µM (inactive)
- GI50 [10]: 25.6 µM (inactive)
- GI50 [11]: 19.1 µM (inactive)
- GI50 [12]: 37.7 µM (inactive)
- GI50 [13]: 15.8 µM (inactive)
- GI50 [14]: 3.25 µM (inactive)
- GI50 [15]: 27.1 µM (inactive)
- GI50 [16]: 28.1 µM (inactive)
- GI50 [17]: 23.9 µM (inactive)
- GI50 [18]: 17.7 µM (inactive)
- GI50 [19]: 12.8 µM (inactive)

SMILES: CCOC(=O)Nn1cnnc1Cc1ccccc1
- GI50 [1]: > 100 µM (inactive)
- GI50 [2]: > 100 µM
- GI50 [3]: > 100 µM (inactive)
- GI50 [4]: > 100 µM (inactive)
- GI50 [5]: > 100 µM (inactive)
- GI50 [6]: > 100 µM (inactive)
- GI50 [7]: > 100 µM (inactive)
- GI50 [8]: > 100 µM (inactive)
- GI50 [10]: > 100 µM (inactive)
- GI50 [11]: > 100 µM (inactive)
- GI50 [12]: > 100 µM (inactive)
- GI50 [13]: > 100 µM (inactive)
- GI50 [14]: > 100 µM (inactive)
- GI50 [15]: > 100 µM (inactive)
- GI50 [16]: > 100 µM (inactive)
- GI50 [17]: > 100 µM (inactive)
- GI50 [18]: > 100 µM (inactive)
- GI50 [19]: > 100 µM (inactive)

SMILES: COc1ccc(/C=C2\CCC(CNc3cc(C)on3)C2=O)cc1 (stereo not given)
- GI50 [1]: > 100 µM (inactive)
- GI50 [2]: > 100 µM
- GI50 [3]: > 100 µM (inactive)
- GI50 [4]: > 93.1 µM (inactive)
- GI50 [5]: 74.6 µM (inactive)
- GI50 [6]: > 100 µM (inactive)
- GI50 [7]: > 100 µM (inactive)
- GI50 [8]: > 100 µM (inactive)
- GI50 [9]: > 100 µM (inactive)
- GI50 [10]: > 100 µM (inactive)
- GI50 [11]: > 100 µM (inactive)
- GI50 [12]: > 100 µM (inactive)
- GI50 [13]: > 72.4 µM (inactive)
- GI50 [14]: > 70 µM (inactive)
- GI50 [15]: 47.4 µM (inactive)
- GI50 [16]: > 94.6 µM (inactive)
- GI50 [17]: > 44.9 µM (inactive)
- GI50 [18]: > 100 µM (inactive)
- GI50 [19]: > 100 µM (inactive)

SMILES: CC(=O)OCC1OC(n2c3c(cc(C#N)c2=O)CCCCCC3)C(OC(C)=O)C(OC(C)=O)C1OC(C)=O (stereo not given)
- GI50 [1]: > 100 µM (inactive)
- GI50 [2]: > 100 µM
- GI50 [3]: > 100 µM (inactive)
- GI50 [4]: > 100 µM (inactive)
- GI50 [5]: > 100 µM (inactive)
- GI50 [6]: > 100 µM (inactive)
- GI50 [7]: 96.6 µM (inactive)
- GI50 [8]: > 100 µM (inactive)
- GI50 [9]: > 100 µM (inactive)
- GI50 [10]: > 100 µM (inactive)
- GI50 [11]: > 100 µM (inactive)
- GI50 [12]: > 100 µM (inactive)
- GI50 [13]: > 100 µM (inactive)
- GI50 [14]: > 100 µM (inactive)
- GI50 [15]: > 100 µM (inactive)
- GI50 [16]: > 100 µM (inactive)
- GI50 [17]: > 100 µM (inactive)
- GI50 [18]: > 100 µM (inactive)
- GI50 [19]: > 100 µM (inactive)

SMILES: CC(=O)OC(C[C@H](C)[C@@H]1CC[C@]2(C)C3=CCC4C(C)(C)C(=O)CC[C@]4(C)C3CCC12C)C1OC1(C)C (stereo not given in full)
- GI50 [1]: 88.9 µM (inactive)
- GI50 [2]: 33 µM
- GI50 [3]: 41.4 µM (inactive)
- GI50 [4]: 13.2 µM (inactive)
- GI50 [5]: 22.7 µM (inactive)
- GI50 [6]: 15.7 µM (inactive)
- GI50 [7]: > 10 µM (inactive)
- GI50 [8]: 7.24 µM (inactive)
- GI50 [9]: 27.3 µM (inactive)
- GI50 [10]: 25.1 µM (inactive)
- GI50 [11]: 19.7 µM (inactive)
- GI50 [12]: 28 µM (inactive)
- GI50 [13]: 17.1 µM (inactive)
- GI50 [14]: 21.6 µM (inactive)
- GI50 [15]: 20.4 µM (inactive)
- GI50 [16]: 20.3 µM (inactive)
- GI50 [17]: 16.4 µM (inactive)
- GI50 [18]: 16.7 µM (inactive)
- GI50 [19]: 27.9 µM (inactive)

SMILES: COc1cc2cc(C(=O)N3CC(CCl)c4c3cc([N+](=O)[O-])c3ccccc43)[nH]c2c(OC)c1OC (stereo not given)
- GI50 [1]: > 100 µM (inactive)
- GI50 [3]: 25.8 µM (inactive)
- GI50 [4]: > 100 µM (inactive)
- GI50 [5]: 14.7 µM (inactive)
- GI50 [6]: 40.6 µM (inactive)
- GI50 [7]: 0.455 µM (active)
- GI50 [8]: 15.3 µM (inactive)
- GI50 [9]: > 100 µM (inactive)
- GI50 [10]: 68.1 µM (inactive)
- GI50 [11]: 29.3 µM (inactive)
- GI50 [12]: > 51.2 µM (inactive)
- GI50 [13]: > 40.6 µM (inactive)
- GI50 [14]: 26.8 µM (inactive)
- GI50 [15]: 8.91 µM (inactive)
- GI50 [16]: > 100 µM (inactive)
- GI50 [17]: 14.1 µM (inactive)
- GI50 [18]: > 100 µM (inactive)
- GI50 [19]: 49.9 µM (inactive)
